# Measurements taken from patent EP0349354A1, “Peptides PF10 to PF19 from a retro virus HIV, method for the synthesis of these peptides and their use, particularly in diagnostics” (INSTITUT PASTEUR, priority 1988, dated 1990).
# Test system: anticorps anti-nef
# Assay: ELISA for detection of anti-nef antibodies on coated peptides or nef
# Format: binding, humain
# Details: for nombre de sérums anti-nef positifs ayant réagi: ELISA, out of 31 anti-nef positive sera; for intensité de l'immunoréactivité (OD), Serum 1: Serum 1, anti-nef positive; for intensité de l'immunoréactivité (OD), Serum 1 / intensité de l'immunoréactivité (OD), Serum 2 / intensité de l'immunoréactivité (OD), Serum 3 / intensité de l'immunoréactivité (OD), Serum 4 / intensité de l'immunoréactivité (OD), Serum 5 / intensité de l'immunoréactivité (OD), Serum 6 / intensité de l'immunoréactivité (OD), Serum 7 / intensité de l'immunoréactivité (OD), Serum 8 / intensité de l'immunoréactivité (OD), Serum 9 / intensité de l'immunoréactivité (OD), Serum 10 / intensité de l'immunoréactivité (OD), Serum 11 / intensité de l'immunoréactivité (OD), Serum 12 / intensité de l'immunoréactivité (OD), Serum 13 / intensité de l'immunoréactivité (OD), Serum 14 / intensité de l'immunoréactivité (OD), Serum 15 / intensité de l'immunoréactivité (OD), Serum 16 / intensité de l'immunoréactivité (OD), Serum 17 / intensité de l'immunoréactivité (OD), Serum 18 / intensité de l'immunoréactivité (OD), Serum 19 / intensité de l'immunoréactivité (OD), Serum 20 / intensité de l'immunoréactivité (OD), Serum 21 / intensité de l'immunoréactivité (OD), Serum 22 / intensité de l'immunoréactivité (OD), Serum 23 / intensité de l'immunoréactivité (OD), Serum 24 / intensité de l'immunoréactivité (OD), Serum 25 / intensité de l'immunoréactivité (OD), Serum 26 / intensité de l'immunoréactivité (OD), Serum 27 / intensité de l'immunoréactivité (OD), Serum 28 / intensité de l'immunoréactivité (OD), Serum 29 / intensité de l'immunoréactivité (OD), Serum 30 / intensité de l'immunoréactivité (OD), Serum 31 / intensité de l'immunoréactivité (OD), Serum 32 / intensité de l'immunoréactivité (OD), Serum 33: 500 ng coated per well; for intensité de l'immunoréactivité (OD), Serum 2: Serum 2, anti-nef positive; for intensité de l'immunoréactivité (OD), Serum 3: Serum 3, anti-nef positive; for intensité de l'immunoréactivité (OD), Serum 4: Serum 4, anti-nef positive; for intensité de l'immunoréactivité (OD), Serum 5: Serum 5, anti-nef positive; for intensité de l'immunoréactivité (OD), Serum 6: Serum 6, anti-nef positive; for intensité de l'immunoréactivité (OD), Serum 7: Serum 7, anti-nef positive; for intensité de l'immunoréactivité (OD), Serum 8: Serum 8, anti-nef positive; for intensité de l'immunoréactivité (OD), Serum 9: Serum 9, anti-nef positive; for intensité de l'immunoréactivité (OD), Serum 10: Serum 10, anti-nef positive; for intensité de l'immunoréactivité (OD), Serum 11: Serum 11, anti-nef positive; for intensité de l'immunoréactivité (OD), Serum 12: Serum 12, anti-nef positive; for intensité de l'immunoréactivité (OD), Serum 13: Serum 13, anti-nef positive; for intensité de l'immunoréactivité (OD), Serum 14: Serum 14, anti-nef positive; for intensité de l'immunoréactivité (OD), Serum 15: Serum 15, anti-nef positive; for intensité de l'immunoréactivité (OD), Serum 16: Serum 16, anti-nef positive; for intensité de l'immunoréactivité (OD), Serum 17: Serum 17, anti-nef positive; for intensité de l'immunoréactivité (OD), Serum 18: Serum 18, anti-nef positive; for intensité de l'immunoréactivité (OD), Serum 19: Serum 19, anti-nef positive; for intensité de l'immunoréactivité (OD), Serum 20: Serum 20, anti-nef positive; for intensité de l'immunoréactivité (OD), Serum 21: Serum 21, anti-nef positive; for intensité de l'immunoréactivité (OD), Serum 22: Serum 22, anti-nef positive; for intensité de l'immunoréactivité (OD), Serum 23: Serum 23, anti-nef positive; for intensité de l'immunoréactivité (OD), Serum 24: Serum 24, anti-nef positive; for intensité de l'immunoréactivité (OD), Serum 25: Serum 25, anti-nef positive; for intensité de l'immunoréactivité (OD), Serum 26: Serum 26, anti-nef positive; for intensité de l'immunoréactivité (OD), Serum 27: Serum 27, anti-nef positive; for intensité de l'immunoréactivité (OD), Serum 28: Serum 28, anti-nef positive; for intensité de l'immunoréactivité (OD), Serum 29: Serum 29, anti-nef positive; for intensité de l'immunoréactivité (OD), Serum 30: Serum 30, anti-nef positive; for intensité de l'immunoréactivité (OD), Serum 31: Serum 31, anti-nef positive; for intensité de l'immunoréactivité (OD), Serum 32: Serum 32, anti-nef negative control serum; for intensité de l'immunoréactivité (OD), Serum 33: Serum 33, anti-nef negative control serum
# Method: Des plaques de microtitration à 96 puits ont été recouvertes une nuit avec 500 ng de protéine nef bactérienne, à 37°C ou avec 500 ng de peptides synthétiques par puits dans 50µl de PBS à pH 7,4. Après saturation avec 400 µl de PBS pH 7,4, contenant 5% de caséine, durant 1 heure à 37°C et lavage avec PBS à pH 7,4, 0,5% de BSA, 0,01% tween, 50 µl de sérums à différentes dilutions ont été ajoutés pendant 2 heures à 37°C. Après le rinçage, 50µl de complexes d'IgG de souris anti-humaine-(H + L)-peroxydase 1:1000 ont été incubés pendant 1 heure à 37°C. Après un nouveau rinçage, 100µl de OPD ont été ajoutés pendant 30mn à température ambiante dans l'obscurité. La réaction de l'enzyme a été arrêtée par addition de 50µl d'acide sulfurique 4N et la densité optique des plaques a été lue à 492 nm/620 nm. Les plaques recouvertes avec la caséine ont été utilisées comme contrôle négatif.
# En vue d'étudier la possibilité d'utiliser des peptides synthétiques en tant qu'antigènes pour la détection d'anticorps anti-nef chez des patients infectés par HIV, 8 peptides synthétiques couvrant la totalité de la séquence de la protéine nef de HIV-1 (figure 4) ont été utilisés dans un test ELISA avec 31 sérums anti-nef positifs et 2 sérums anti-nef négatifs utilisés comme contrôle. Les recombinants nef ont été utilisés comme contrôle positif dans les tests ELISA et la caséine a été utilisée comme contrôle négatif. Les résultats de ces expériences sont donnés dans le tableau 4 qui illustre l'essai suivant: Essai ELISA sur 31 sérums anti-nef-positifs et 2 sérums anti-nef- négatifs, soit pré-recouverts avec des peptides synthétiques (PF 11 à PF 18), soit en utilisant nef, la caséine ou un mélange de peptides PF 12 et PF 17. Les sérums ont été sélectionnés au hasard parmi des sérums anti-nef positifs et anti-nefs négatifs testés par la méthode RIA en utilisant ¹²⁵I nef. L'intensité de l'immunoradioactivité est notée "-" pour une densité optique (OD) inférieure à 0,2; "+" pour OD = 0,2 à 0,4; "++" pour OD = 0,4 à 0,8 et "+++" pour OD = 0,8 à 2,0.
Sequence,nombre de sérums anti-nef positifs ayant réagi,"intensité de l'immunoréactivité (OD), Serum 1","intensité de l'immunoréactivité (OD), Serum 2","intensité de l'immunoréactivité (OD), Serum 3","intensité de l'immunoréactivité (OD), Serum 4","intensité de l'immunoréactivité (OD), Serum 5","intensité de l'immunoréactivité (OD), Serum 6","intensité de l'immunoréactivité (OD), Serum 7","intensité de l'immunoréactivité (OD), Serum 8","intensité de l'immunoréactivité (OD), Serum 9","intensité de l'immunoréactivité (OD), Serum 10","intensité de l'immunoréactivité (OD), Serum 11","intensité de l'immunoréactivité (OD), Serum 12","intensité de l'immunoréactivité (OD), Serum 13","intensité de l'immunoréactivité (OD), Serum 14","intensité de l'immunoréactivité (OD), Serum 15","intensité de l'immunoréactivité (OD), Serum 16","intensité de l'immunoréactivité (OD), Serum 17","intensité de l'immunoréactivité (OD), Serum 18","intensité de l'immunoréactivité (OD), Serum 19",further results
XCVGFPVTPQVPLRPMTYKAAVDLSHFLKEKGGLEGLIHSQRRQDILZ [PF14],3,"- (pour une densité optique (OD) inférieure à 0,2)","- (pour une densité optique (OD) inférieure à 0,2)","+++ (pour OD = 0,8 à 2,0)","- (pour une densité optique (OD) inférieure à 0,2)","- (pour une densité optique (OD) inférieure à 0,2)","- (pour une densité optique (OD) inférieure à 0,2)","- (pour une densité optique (OD) inférieure à 0,2)","- (pour une densité optique (OD) inférieure à 0,2)","- (pour une densité optique (OD) inférieure à 0,2)","- (pour une densité optique (OD) inférieure à 0,2)","- (pour une densité optique (OD) inférieure à 0,2)","- (pour une densité optique (OD) inférieure à 0,2)","- (pour une densité optique (OD) inférieure à 0,2)","++ (pour OD = 0,4 à 0,8)","- (pour une densité optique (OD) inférieure à 0,2)","- (pour une densité optique (OD) inférieure à 0,2)","- (pour une densité optique (OD) inférieure à 0,2)","- (pour une densité optique (OD) inférieure à 0,2)","- (pour une densité optique (OD) inférieure à 0,2)","intensité de l'immunoréactivité (OD), Serum 20: - (pour une densité optique (OD) inférieure à 0,2); intensité de l'immunoréactivité (OD), Serum 21: ++ (pour OD = 0,4 à 0,8); intensité de l'immunoréactivité (OD), Serum 22: - (pour une densité optique (OD) inférieure à 0,2); intensité de l'immunoréactivité (OD), Serum 23: - (pour une densité optique (OD) inférieure à 0,2); intensité de l'immunoréactivité (OD), Serum 24: - (pour une densité optique (OD) inférieure à 0,2); intensité de l'immunoréactivité (OD), Serum 25: - (pour une densité optique (OD) inférieure à 0,2); intensité de l'immunoréactivité (OD), Serum 26: - (pour une densité optique (OD) inférieure à 0,2); intensité de l'immunoréactivité (OD), Serum 27: - (pour une densité optique (OD) inférieure à 0,2); intensité de l'immunoréactivité (OD), Serum 28: - (pour une densité optique (OD) inférieure à 0,2); intensité de l'immunoréactivité (OD), Serum 29: - (pour une densité optique (OD) inférieure à 0,2); intensité de l'immunoréactivité (OD), Serum 30: - (pour une densité optique (OD) inférieure à 0,2); intensité de l'immunoréactivité (OD), Serum 31: - (pour une densité optique (OD) inférieure à 0,2); intensité de l'immunoréactivité (OD), Serum 32: - (pour une densité optique (OD) inférieure à 0,2); intensité de l'immunoréactivité (OD), Serum 33: - (pour une densité optique (OD) inférieure à 0,2)"
"XGGKWSKSSVVGWPTVRERMRRAEPAADGVGAASRDLEKHGAITSSNTA ATNAACAWLEAQEEEEVGZ [PF12, protéine F HIV-1, séquence 1-66]",16,"+ (pour OD = 0,2 à 0,4)","- (pour une densité optique (OD) inférieure à 0,2)","+++ (pour OD = 0,8 à 2,0)","+ (pour OD = 0,2 à 0,4)","- (pour une densité optique (OD) inférieure à 0,2)","- (pour une densité optique (OD) inférieure à 0,2)","+++ (pour OD = 0,8 à 2,0)","+++ (pour OD = 0,8 à 2,0)","+++ (pour OD = 0,8 à 2,0)","- (pour une densité optique (OD) inférieure à 0,2)","++ (pour OD = 0,4 à 0,8)","++ (pour OD = 0,4 à 0,8)","- (pour une densité optique (OD) inférieure à 0,2)","++ (pour OD = 0,4 à 0,8)","- (pour une densité optique (OD) inférieure à 0,2)","- (pour une densité optique (OD) inférieure à 0,2)","- (pour une densité optique (OD) inférieure à 0,2)","- (pour une densité optique (OD) inférieure à 0,2)","+++ (pour OD = 0,8 à 2,0)","intensité de l'immunoréactivité (OD), Serum 20: - (pour une densité optique (OD) inférieure à 0,2); intensité de l'immunoréactivité (OD), Serum 21: ++ (pour OD = 0,4 à 0,8); intensité de l'immunoréactivité (OD), Serum 22: - (pour une densité optique (OD) inférieure à 0,2); intensité de l'immunoréactivité (OD), Serum 23: - (pour une densité optique (OD) inférieure à 0,2); intensité de l'immunoréactivité (OD), Serum 24: - (pour une densité optique (OD) inférieure à 0,2); intensité de l'immunoréactivité (OD), Serum 25: +++ (pour OD = 0,8 à 2,0); intensité de l'immunoréactivité (OD), Serum 26: +++ (pour OD = 0,8 à 2,0); intensité de l'immunoréactivité (OD), Serum 27: - (pour une densité optique (OD) inférieure à 0,2); intensité de l'immunoréactivité (OD), Serum 28: + (pour OD = 0,2 à 0,4); intensité de l'immunoréactivité (OD), Serum 29: ++ (pour OD = 0,4 à 0,8); intensité de l'immunoréactivité (OD), Serum 30: - (pour une densité optique (OD) inférieure à 0,2); intensité de l'immunoréactivité (OD), Serum 31: +++ (pour OD = 0,8 à 2,0); intensité de l'immunoréactivité (OD), Serum 32: - (pour une densité optique (OD) inférieure à 0,2); intensité de l'immunoréactivité (OD), Serum 33: - (pour une densité optique (OD) inférieure à 0,2)"
